In paper PMC5794828, “A novel galactolipase from a green microalga Chlorella kessleri: purification, characterization, molecular cloning, and heterologous expression” (Applied Microbiology and Biotechnology, 2018) one finds Km data, which are given here for one substance.

Broadly, the Km is the concentration of substrate that gives half-maximal velocity.

Test [1] has as its target T1, ckGL (purified native galactolipase) (Parachlorella kessleri, UniProt A0A2Z5TTR4).
T1 construct: gene chGL; native, purified from C. kessleri cells; N-terminus TALREVATKSEVSEA; ~53 kDa; in Triton X-100
T1 sequence (A0A2Z5TTR4 61-535): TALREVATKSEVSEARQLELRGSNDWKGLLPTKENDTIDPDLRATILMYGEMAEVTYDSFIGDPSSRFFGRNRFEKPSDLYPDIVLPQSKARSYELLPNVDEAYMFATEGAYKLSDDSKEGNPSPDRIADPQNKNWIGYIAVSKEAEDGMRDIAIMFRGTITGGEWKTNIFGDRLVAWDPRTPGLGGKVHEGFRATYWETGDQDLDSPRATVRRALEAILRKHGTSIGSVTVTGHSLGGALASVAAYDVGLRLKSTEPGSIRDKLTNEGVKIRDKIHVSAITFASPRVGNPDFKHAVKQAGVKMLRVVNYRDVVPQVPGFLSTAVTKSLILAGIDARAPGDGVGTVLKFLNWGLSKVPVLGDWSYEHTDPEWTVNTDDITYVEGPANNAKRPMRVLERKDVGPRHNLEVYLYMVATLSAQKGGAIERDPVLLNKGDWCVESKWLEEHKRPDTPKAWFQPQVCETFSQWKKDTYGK
As to the kind of experiment: free fatty acid release (NEFA C kit, A550), Lineweaver-Burk linear regression. Type of test: biochemical. Conditions: pH 6.5 MES-NaOH, 37 °C, 2 mM CaCl2, 0.3% (w/v) Triton X-100; substrate is an acyl-chain mixture; read-out: apparent Km.

Test [2] has as its target T2, rckGL (recombinant ckGL) (Parachlorella kessleri, UniProt A0A2Z5TTR4).
T2 construct: gene chGL; His-tag and trigger factor cut off with factor Xa; ~53 kDa
T2 sequence (A0A2Z5TTR4 61-535): T1 sequence (A0A2Z5TTR4 61-535)
In words: free fatty acid release (NEFA C kit, A550), nonlinear regression. It counts as biochemical. The note with it: pH 6.5 MES-NaOH, 37 °C, 2 mM CaCl2, 0.3% (w/v) Triton X-100; substrate is an acyl-chain mixture; read-out: apparent Km.

As for “1,2-diacyl-3-O-(α-D-galactosyl1-6)-β-D-galactosyl-sn-glycerol [DGDG]”, the Km stood at 1050 ± 480 µM in test [1] and 540 ± 110 µM in test [2].
